Results taken from patent US10111435B2, “Herbicidal compositions containing N-(1,3,4-oxadiazol-2-yl)-aryl carboxylic acid amides” (BAYER CROPSCIENCE AKTIENGESELLSCHAFT, priority 2013, dated 2018).

Tests used:
Assay type in all cases: in vivo
[1] = tested on: Kochia scoparia (KCHSC); experiment: greenhouse post-emergence herbicidal efficacy against KCHSC; conditions: 4 g of a.i./ha
Protocol: (§1) All trials whose results are shown were conducted in a greenhouse by the methodology specified below. The effect of the inventive herbicidal compositions was examined on the following harmful plants 14 and 21 days after application:
(§2) Echinochloa crus-galli (ECHCG), Eleusine indica (ELEIN), Setaria viridis (SETVI), Amaranthus retroflexus (AMARE), Chenopodium album (CHEAL), Kochia scoparia (KCHSC), Solanum nigrum (SOLNI), Avena fatua (AVEFA), Bromus sterilis (BROST), Lolium multiflorum (LOLMU), Phalaris minor (PHAMI), Poa annua (POAAN), Galium aparine (GALAP), Matricaria inodora (MATIN) and Polygonum convolvulus (POLCO).
(§3) The harmful plant seeds were sown in pots (diameter 8 cm) with sandy loam soil and germinated under optimal conditions. The inventive herbicidal compositions or the active ingredients alone were applied post-emergence to the planted pots with a spray volume of 300 L/ha. The trial was conducted in a greenhouse under optimum growth conditions. The herbicidal effects were assessed visually by comparison of untreated and treated plants. The percentages mean: 0%=no effects, 100%=the plants die off completely). The percentages are used to calculate interactions between individual treatments and combination treatments according to S. R. Colby, Weeds 15, pages 20 to 22 (1967).
(§4) The abbreviations mean: • a.i.=active ingredient • E^C=expected value according to Colby (E^C=A+B−A×B/100) • Diff: =difference (%) of measured value from expected value (%) (measured value minus expected value)
(§5) Assessment: • measured value E is greater than E^C:->synergism (+ diff.) • measured value E equals E^C:->additive effect • measured value E is smaller than E^C:->antagonism(− diff.)

[2] = tested on: Galium aparine (GALAP); experiment: greenhouse post-emergence herbicidal efficacy against GALAP
Protocol: as §1, §2
as §3, with “completely).” for “completely). The percentages are used to calculate interactions between individual treatments and combination treatments according to S. R. Colby, Weeds 15, pages 20 to 22 (1967).”
as §4, §5

[3] = tested on: Avena fatua (AVEFA); experiment: greenhouse post-emergence herbicidal efficacy against AVEFA
Protocol: as §1, §2
as §3, with “completely).” for “completely). The percentages are used to calculate interactions between individual treatments and combination treatments according to S. R. Colby, Weeds 15, pages 20 to 22 (1967).”
as §4, §5

[4] = tested on: Setaria viridis (SETVI); experiment: greenhouse post-emergence herbicidal efficacy against SETVI; conditions: 21 days after application
Protocol: as §1, §2, §3, §4, §5

[5] = tested on: Polygonum convolvulus (POLCO); experiment: greenhouse post-emergence herbicidal efficacy against POLCO
Protocol: as §1, §2
as §3, with “completely).” for “completely). The percentages are used to calculate interactions between individual treatments and combination treatments according to S. R. Colby, Weeds 15, pages 20 to 22 (1967).”
as §4, §5

[6] = tested on: Poa annua (POAAN); experiment: greenhouse post-emergence herbicidal efficacy against POAAN
Protocol: as §1, §2
as §3, with “completely).” for “completely). The percentages are used to calculate interactions between individual treatments and combination treatments according to S. R. Colby, Weeds 15, pages 20 to 22 (1967).”
as §4, §5

[7] = tested on: Matricaria inodora (MATIN); experiment: greenhouse post-emergence herbicidal efficacy against MATIN
Protocol: as §1, §2
as §3, with “completely).” for “completely). The percentages are used to calculate interactions between individual treatments and combination treatments according to S. R. Colby, Weeds 15, pages 20 to 22 (1967).”
as §4, §5

[8] = tested on: Phalaris minor (PHAMI); experiment: greenhouse post-emergence herbicidal efficacy against PHAMI
Protocol: as §1, §2
as §3, with “completely).” for “completely). The percentages are used to calculate interactions between individual treatments and combination treatments according to S. R. Colby, Weeds 15, pages 20 to 22 (1967).”
as §4, §5

[9] = tested on: Lolium multiflorum (LOLMU); experiment: greenhouse post-emergence herbicidal efficacy against LOLMU
Protocol: as §1, §2
as §3, with “completely).” for “completely). The percentages are used to calculate interactions between individual treatments and combination treatments according to S. R. Colby, Weeds 15, pages 20 to 22 (1967).”
as §4, §5

[10] = tested on: Chenopodium album (CHEAL); experiment: greenhouse post-emergence herbicidal efficacy against CHEAL; conditions: 21 days after application; 1 g of a.i./ha
Protocol: as §1, §2, §3, §4, §5

[11] = tested on: Eleusine indica (ELEIN); experiment: greenhouse post-emergence herbicidal efficacy against ELEIN; conditions: 4 g of a.i./ha
Protocol: as §1, §2, §3, §4, §5

[12] = tested on: Echinochloa crus-galli (ECHCG); experiment: greenhouse post-emergence herbicidal efficacy against ECHCG
Protocol: as §1, §2, §3, §4, §5

[13] = tested on: Bromus sterilis (BROST); experiment: greenhouse post-emergence herbicidal efficacy against BROST
Protocol: as §1, §2
as §3, with “completely).” for “completely). The percentages are used to calculate interactions between individual treatments and combination treatments according to S. R. Colby, Weeds 15, pages 20 to 22 (1967).”
as §4, §5

[14] = 14 days after application, 5 g of a.i./ha
[15] = 21 days after application, g of a.i./ha: A1-3 5, pinoxaden 20
[16] = 21 days after application, g of a.i./ha: A1-3 20, pinoxaden 5
[17] = 21 days after application, g of a.i./ha: A1-3 20, pinoxaden 20
[18] = 14 days after application, 20 g of a.i./ha
[19] = 14 days after application, g of a.i./ha: A1-57 12.5, aclonifen 200
[20] = 14 days after application, g of a.i./ha: A1-57 50, aclonifen 200
[21] = 21 days after application, g of a.i./ha: A1-57 50, aclonifen 800
[22] = 21 days after application, g of a.i./ha: A1-57 12.5, aclonifen 800
[23] = 14 days after application, g of a.i./ha: A1-57 12.5, aclonifen 800
[24] = 21 days after application, g of a.i./ha: A1-57 12.5, aclonifen 200
[25] = 14 days after application, g of a.i./ha: A1-57 50, aclonifen 800

Measured: Efficacy

COCc1nnc(NC(=O)c2ccc(C(F)(F)F)c(S(C)(=O)=O)c2C)o1 [A1-3]
5%: [2]; [15] | [2]; [16] | [2]; [17] | [5]; [16] | [5]; [17] | [6]; [18] | [8]; [16] | [8]; [17] | [9]; [16] | [13]; [18]
20%: [1]; 21 days after application | [4]; 4 g of a.i./ha | [8]; [18] | [10] | [11]; 21 days after application
10%: [4]; 1 g of a.i./ha | [5]; [18] | [12]; 21 days after application, 4 g of a.i./ha
0%: [3]; [14] | [3]; [18] | [5]; [14] | [6]; [14] | [6]; [15] | [8]; [14] | [9]; [14] | [9]; [15] | [12]; 14 days after application, 1 g of a.i./ha | [12]; 21 days after application, 1 g of a.i./ha | [13]; [14]
40%: [1]; 14 days after application | [2]; [14] | [12]; 14 days after application, 4 g of a.i./ha
50%: [11]; 14 days after application
30%: [7]; [14]
3%: [6]; [17]

Nc1c([N+](=O)[O-])ccc(Oc2ccccc2)c1Cl [aclonifen]
30%: [6]; [23] | [6]; [25]
10%: [5]; [23] | [6]; [22] | [6]; [21]
40%: [8]; [23]
0%: [3]; 14 days after application, 200 g of a.i./ha | [3]; 14 days after application, 800 g of a.i./ha | [3]; [19] | [3]; [22] | [5]; [19] | [5]; [24] | [6]; [19] | [6]; [20] | [6]; 21 days after application, g of a.i./ha: A1-57 50, aclonifen 200 | [7]; [19] | [7]; [23] | [7]; [25] | [7]; [21] | [8]; [19] | [8]; [20] | [8]; [24] | [9]; [23] | [9]; [25] | [13]; [19] | [13]; [23] | [13]; [25] | [13]; [22] | [13]; [21]
20%: [2]; [19] | [2]; [20] | [2]; [21]
15%: [8]; [22]
